These results are taken from BindingDB's records for doi:10.1021/jm00126a039 (University of Wisconsin-Madison, 1989).

Broadly, the Ki is the equilibrium dissociation constant of an inhibitor or competing ligand from its target. A higher Ki goes with lower affinity.

Structures are written as SMILES.

The assay addresses T1, Gastricsin (Rattus norvegicus, UniProt P04073).
T1 sequence (P04073 whole entry): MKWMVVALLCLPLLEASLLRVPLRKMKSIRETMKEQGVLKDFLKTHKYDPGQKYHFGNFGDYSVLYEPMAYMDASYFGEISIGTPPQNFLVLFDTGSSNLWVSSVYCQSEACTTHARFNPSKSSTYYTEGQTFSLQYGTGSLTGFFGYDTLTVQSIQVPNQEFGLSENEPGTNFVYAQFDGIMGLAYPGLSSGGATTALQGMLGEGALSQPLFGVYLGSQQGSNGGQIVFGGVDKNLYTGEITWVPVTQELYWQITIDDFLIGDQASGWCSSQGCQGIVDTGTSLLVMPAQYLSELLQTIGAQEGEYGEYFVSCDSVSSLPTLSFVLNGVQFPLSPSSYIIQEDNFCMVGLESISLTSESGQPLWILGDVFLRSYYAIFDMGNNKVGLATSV
Nature of the assay: ChEBML_154148. An excerpt: Inhibition of enzyme pepsin

Take `CCC(NC(=O)[C@H](C)NC(=O)[C@H](C)CC(=O)[C@H](CC(C)C)NC(=O)[C@@H](NC(=O)CC(C)C)C(C)C)C(=O)O` (stereo partly drawn): the Ki stood at 110 nM.
As to `CCC(NC(=O)[C@H](C)NC(=O)[C@H](C)C[C@H](O)[C@H](CC(C)C)NC(=O)[C@@H](NC(=O)CC(C)C)C(C)C)C(=O)O` (stereo partly drawn), the Ki amounted to 3 nM.
The result for `CC(C)CCNC(=O)[C@H](C)NC(=O)C[C@H](O)[C@H](CC(C)C)NC(=O)[C@@H](NC(=O)CC(C)C)C(C)C` [3-Hydroxy-6-methyl-4-[3-methyl-2-(3-methyl-butyrylamino)-butyrylamino]-heptanoic acid [1-(3-methyl-butylcarbamoyl)-ethyl]-amide] reads 3 nM.
